# Patent US20050154046A1, “Methods of treating an inflammatory-related disease” (priority 2004, published 2005)
# How the values were obtained:
# [1] = test system: TNF-α mRNA; assay: TNF-α transcription (real time PCR) in LPS-stimulated THP-1 cells; assay type: cell-based, human; conditions: 4 μM, 24 h
# Experimental: The effect of Meisoindigo on the transcription of TNF-α (RNA levels) was determined by a technique of real time PCR using the same procedures described in Example 2, except the specific primers for TNF-α were used as follows: 5′-[…], and 5′[…]. Total RNA was extracted using a Qiagen Rneasy minit kit, and the HPRT gene was used as internal control.
# Human monocytic THP-1 cells grown exponentially were exposed to […] of LPS, 4 μM of Meisoindigo, or 1 μg/ml of LPS plus 4 μM of Meisoindigo for 24 hours. The cells were then harvested, washed and total RNA extracted for real time PCR assay as described in Example 2.
# [2] = test system: IL-6; assay: IL-6 secretion (ELISA) in LPS-stimulated THP-1 cells; assay type: cell-based, human
# Experimental: Viability of cells was examined under microscope after trypan blue staining.
# Standard IL-6 protein was used to establish a standard curve for the calculation of IL-6 in the medium secreted by the cells (LPS-stimulated or non-stimulated cells in the presence or absence of Meisoindigo).
# 1) Effects of Meisoindigo and NATURA on the expression/secretion of cytokines IL-1β, IL-6, IL-10: The human monocytic THP-1 cells grown exponentially were stimulated with or without 1 μM of lipopolysaccharide (LPS, Sigma), and exposed for 24 hours to different concentrations of Meisoindigo and NATURA (from 31.25 nM and 62.5 nM), respectively. Viability of cells was examined by trypan blue exception assay.
# [3] = test system: DSS-induced acute ulcerative colitis; assay: DSS-induced acute ulcerative colitis in Balb/c mice; assay type: in vivo; conditions: 7 days
# Source text: Materials: […] A suspension of Meisoindigo was freshly prepared in 0.5% sodium methylcellulose and given orally for the animal tests described below. DSS (Dextran Sulfate Sodium salt, molecular weight: 36,000-44,000) was purchased from ICN Biomedicals. Other chemicals used in the following experiments were purchased from Sigma. Pathogen-free female Balb/c mice at 12 weeks of age with body weights from 22 to 25 grams were housed 5 per cage, and given, ad libitum, fresh tap water and commercial rodent pellets. Animal rooms were controlled at 24±2° C. with a relative humidity of 60±5% and a 12 hour light/dark cycle (07:00-19:00 hr). Induction of Acute Ulcerative Colitis DSS-induced colitis in Balb/c Mice: Colitis was induced by DSS in drinking water (MW 36,000-50,000, ICN biochemicals) as described previously (112). Briefly, the mice were randomly divided into 3 groups composed of 10 mice each. In the negative control group (Group 1), mice were given fresh tap water ad libitum and MF pellets, freshly changed twice a week, for 7 days. In the positive control group (DSS group, or Group 2), 5% DSS in tap water was given for 7 days to induce colitis, and the mice were fed with MF pellets. In the DSS-Meisoindigo group (test group or Group 3), mice were given 5% DSS drinking water and given Meisoindigo orally once a day at a dose of 50 mg/kg for 7 consecutive days. Fecal indications of colitis were recorded daily, including body weight and nature of feces (loose and/or bleeding or occult blood). Mice were then sacrificed. Colon tissues were taken, fixed in 10% formalin/PBS, and embedded in paraffin. To minimize physical artifacts, the removed colon was put onto a thick qualitative filter paper without stretching. The colon was then exposed inside out by cutting it longitudinally. The slides were stained with H&E and blindly examined histochemically by 3 technician/pathologists. All data was expressed as a mean±SD.
# [4] = test system: scale epithelial cells of mouse-tails; assay: Mouse-tail model: granular layer formation in scale epithelial cells; assay type: in vivo, Kunming mice; conditions: 13 days
# Source text: (§1) Materials: Meisoindigo was synthesized, purified and its structure characterized by Natrogen Therapeutics, Inc. The purity of the compound was 98.5% as described in the Examples above. A suspension of Meisoindigo was freshly prepared in 0.5% sodium methylcellulose and given orally for the animal tests described below. Other chemicals used in the following experiments were purchased from Sigma.
# (§2) Pathogen-free female Kunming mice at 12 weeks of age with body weights from 22 to 25 grams were housed 5 per cage, and given, ad libitum, fresh tap water and commercial rodent pellets. Animal rooms were controlled at 24±2° C. with a relative humidity of 60±5% and a 12 hour light/dark cycle (07:00-19:00 hr).
# Effect of Meisoindigo on Epidermal Cell Differentiation in Mouse Tails: Sixty female Kunming mice were randomly divided into 5 groups, 20 in one control group, and 10 in 4 drug-tested groups. Meisoindigo was freshly prepared as a suspension in 0.5% of sodium methylcellulose. The drug was given orally at doses of 50, 100, and 200 mg/kg, respectively, once a day for 13 days. Methotrexate (MTX) was used as a positive control at a dose of 1 mg/kg, i.p. once every 2 days, for the same period of time. The same volume and vehicle for Meisoindigo suspension were used as a negative control. […] Slides were prepared for histological examination as originally described by Bosman et. al., (106). The slides were prepared by cutting the tails into longitudinal sections, and Hematoxylin and Eosin (H&E) stained. The slides were then examined with a light microscope to evaluate the degree of orthokeratosis (OK) and epidermal hyperplasia. The former was done by measuring the horizontal length of the fully developed granular layer stratum granulosum within an individual scale in relation to its total length. Drug activity was defined by the increase of the positive scale cells containing granular layer stratum granulosum between two folliculus pili.
# [5] = test system: mouse vaginal epithelium; assay: Mitotic index in estrogen-stimulated vaginal epithelium of female mice; assay type: in vivo, Kunming mice; conditions: 200.0 mg/kg orally once a day, 3 days; percent of mitotic cells
# Source text: as §1, §2
# Anti-mitotic Effects of Meisoindigo on Mouse Vaginal Epithelium: Sixty Kunming female mice were randomly divided into 5 groups, 20 in one control group, and 10 in 4 drug-tested groups. All mice were given estrogen at a dose of 0.2 mg/animal for 3 days to allow vaginal epithelial cells to develop under the stimulation of estrogen hormone. Meisoindigo was freshly prepared as a suspension in 0.5% of sodium methylcellulose. The drug was given orally at doses of 50, 100, and 200 mg/kg, respectively, once a day for 3 days. Methotrexate (MTX) was used as a positive control at a dose of 1 mg/kg, i.p. once a day for the same period of time. […] The mitotic index (percent of mitotic cells) was calculated.
# [6] = test system: cyclin D1; assay: Cyclin D1 levels in THP-1 cells; assay type: cell-based, human; conditions: 31.25 and 62.5 nM, 24 h; data not shown
# [7] = 50 mg/kg orally once a day, 5% DSS
smiles,measurement,setting,value
CN1C(=O)/C(=C2/C(=O)Nc3ccccc32)c2ccccc21 [Meisoindigo],effect on TNF-α mRNA levels / transcription,[1],No effect
same,reduction of IL-6 secretion,"[2]; 31.25 nM, LPS 1 μg/ml, THP-1 cells",Approximately 85%
same,"IL-6 (Inhibition), Percentage of Maximal Response Without Cytotoxicity","[2]; LPS-stimulated THP-1 cells, LPS alone 100.00",83.51 ± 5.41%
same,effect on IL-6 production/secretion,"[2]; as low as 31.25 nM (31.25 and 62.5 nM in FIG. 6), 24 h",significantly inhibit
same,reduction of the ulcerations versus positive control group,[3]; 50 mg/kg orally once a day,55%
same,animals with occult blood,[3]; [7],40%
same,other symptoms such as loose stool,[3]; [7],less severe than that of the control group
same,ulcerative damage of the colon (count under microscope),"[3]; 50 mg/kg orally, positive control 6.38±2.20",2.89±1.46
same,Granulous Scales (X ± SD),[4]; 50.0 mg/kg orally once a day,22.37 ± 6.20
same,Granulous Scales (X ± SD),[4]; 100.0 mg/kg orally once a day,25.98 ± 4.12
same,Granulous Scales (X ± SD),[4]; 200.0 mg/kg orally once a day,31.30 ± 7.92
same,Mitotic Index (X ± SD),[5],16.06±2.66
same,effect on levels of cyclin D1,[6],failed to inhibit
